Measured values: patent publication US20230017045A1, “PYRIDINE AND PYRIMIDINE CARBOXYLATE HERBICIDES AND METHODS OF USE THEREOF” (Dow AgroSciences LLC, priority 2017, published 2023)
Like-named read-outs stand apart in the source and are kept apart here.

System: test plant species
Test: Post-emergent herbicidal activity test (greenhouse, foliar spray, visual growth reduction)
Format: in vivo
Conditions: post-emergence, 336 h, 140 g ai/ha
How it was run: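 Scoring used a 0 to 100 percent visual scale of growth reduction against solvent-treated controls, read 14 d after spraying. Applications went onto plants at first or second true leaf stage, 187 L/ha, with crop oil concentrate and X-77 surfactant in the carrier. Post-treatment watering was by subirrigation to avoid wash-off.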

[1] = ECHCG: barnyardgrass (Echinochloa crus-galli), 14 days after application, read-out: Visual Growth Reduction (%) 14 Days After Application, ECHCG
[2] = IPOHE: ivy-leaf morning glory (Ipomoea hederacea), 14 days after application, read-out: Visual Growth Reduction (%) 14 Days After Application, IPOHE
[3] = KCHSC: kochia (Bassia scoparia), 14 days after application, read-out: Visual Growth Reduction (%) 14 Days After Application, KCHSC
[4] = ORYSA: rice (Oryza sativa), 14 days after application, read-out: Visual Growth Reduction (%) 14 Days After Application, ORYSA
[5] = SETFA: giant foxtail (Setaria faberi), 14 days after application, read-out: Visual Growth Reduction (%) 14 Days After Application, SETFA
[6] = SORVU: grain sorghum (Sorghum vulgare), 14 days after application, read-out: Visual Growth Reduction (%) 14 Days After Application, SORVU
[7] = STEME: common chickweed (Stellaria media), 14 days after application, read-out: Visual Growth Reduction (%) 14 Days After Application, STEME
[8] = TRZAS: wheat, spring (Triticum aestivum), 14 days after application, read-out: Visual Growth Reduction (%) 14 Days After Application, TRZAS
[9] = blackgrass (Alopecurus myosuroides), 14 Days After Application, read-out: Visual Growth Reduction (%) ALOMY
[10] = crabgrass (Digitaria sanguinalis), 14 Days After Application, read-out: Visual Growth Reduction (%) DIGSA
[11] = lambsquarters (Chenopodium album), 14 Days After Application, read-out: Visual Growth Reduction (%) CHEAL
[12] = redroot pigweed (Amaranthus retroflexus), 14 Days After Application, read-out: Visual Growth Reduction (%) AMARE
[13] = wild oat (Avena fatua), 14 Days After Application, read-out: Visual Growth Reduction (%) AVEFA
[14] = yellow nutsedge (Cyperus esculentus), 14 Days After Application, read-out: Visual Growth Reduction (%) CYPES
[15] = canada thistle (Cirsium arvense), 14 Days After Application, read-out: Visual Growth Reduction (%) CIRAR
[16] = ALOMY: blackgrass (Alopecurus myosuroides), 14 days after application, read-out: Visual Growth Reduction (%) 14 Days After Application, ALOMY
[17] = AMARE: redroot pigweed (Amaranthus retroflexus), 14 days after application, read-out: Visual Growth Reduction (%) 14 Days After Application, AMARE
[18] = AVEFA: wild oat (Avena fatua), 14 days after application, read-out: Visual Growth Reduction (%) 14 Days After Application, AVEFA
[19] = CHEAL: lambsquarters (Chenopodium album), 14 days after application, read-out: Visual Growth Reduction (%) 14 Days After Application, CHEAL
[20] = CIRAR: canada thistle (Cirsium arvense), 14 days after application, read-out: Visual Growth Reduction (%) 14 Days After Application, CIRAR
[21] = CYPES: yellow nutsedge (Cyperus esculentus), 14 days after application, read-out: Visual Growth Reduction (%) 14 Days After Application, CYPES
[22] = DIGSA: crabgrass (Digitaria sanguinalis), 14 days after application, read-out: Visual Growth Reduction (%) 14 Days After Application, DIGSA

Row | SMILES | pest or weed control at 140 g/ha [1] [%] | pest or weed control at 140 g/ha [2] [%] | pest or weed control at 140 g/ha [3] [%] | pest or weed control at 140 g/ha [4] [%] | pest or weed control at 140 g/ha [5] [%] | pest or weed control at 140 g/ha [6] [%] | pest or weed control at 140 g/ha [7] [%] | pest or weed control at 140 g/ha [8] [%] | pest or weed control at 140 g/ha [9] [%] | pest or weed control at 140 g/ha [10] [%] | pest or weed control at 140 g/ha [11] [%] | pest or weed control at 140 g/ha [12] [%] | pest or weed control at 140 g/ha [13] [%] | pest or weed control at 140 g/ha [16] [%] | pest or weed control at 140 g/ha [17] [%] | pest or weed control at 140 g/ha [18] [%] | pest or weed control at 140 g/ha [19] [%] | pest or weed control at 140 g/ha [20] [%] | pest or weed control at 140 g/ha [21] [%] | pest or weed control at 140 g/ha [22] [%] | other results
1 | COc1cc2c(cc1-c1nc(C(=O)O)c(Cl)cc1F)OC(F)(F)O2 [F344, 3-Chloro-6-(2,2-difluoro-6-methoxybenzo[d][1,3]dioxol-5-yl)-5-fluoropicolinic acid] | 0 to 29 | 95 to 100 | 45 to 59 | 0 to 29 | 60 to 74 | 75 to 84 | 0 to 29 | 45 to 59 | 0 to 29 | 60 to 74 | 30 to 44 | 0 to 29 | 0 to 29 |  |  |  |  |  |  |  | pest or weed control at 140 g/ha [14]: 0 to 29%
2 | COC(=O)c1nc(-c2ccc(C(F)F)cc2OC)c(F)cc1Cl [F275, Methyl 3-chloro-6-(4-(difluoromethyl)-2-methoxyphenyl)-5-fluoropicolinate] | 0 to 29 | 95 to 100 | 85 to 94 | 0 to 29 | 45 to 59 | 45 to 59 | 0 to 29 | 0 to 29 | 0 to 29 | 0 to 29 | 85 to 94 | 60 to 74 | 0 to 29 |  |  |  |  |  |  |  | pest or weed control at 140 g/ha [15]: 95 to 100%; pest or weed control at 140 g/ha [14]: 0 to 29%
3 | COC(=O)c1nc(-c2ccc(C(F)(F)F)cc2F)c(Cl)cc1Cl [F102, Methyl 3,5-dichloro-6-(2-fluoro-4-(trifluoromethyl)phenyl)picolinate] | 0 to 29 | 60 to 74 | 0 to 29 | 0 to 29 | 0 to 29 | 60 to 74 | 0 to 29 | 0 to 29 |  |  |  |  |  | 0 to 29 | 45 to 59 | 0 to 29 | 60 to 74 | 0 to 29 | 0 to 29 | 0 to 29 | 
4 | COc1cc(-c2ccc(Cl)c(C(=O)O)n2)ccc1C(F)(F)F [F317, 3-Chloro-6-(3-methoxy-4-(trifluoromethyl)phenyl)picolinic acid] | 0 to 29 | 60 to 74 | 0 to 29 | 0 to 29 | 0 to 29 | 0 to 29 | 0 to 29 | 0 to 29 | 0 to 29 | 0 to 29 | 0 to 29 | 0 to 29 | 0 to 29 |  |  |  |  |  |  |  | pest or weed control at 140 g/ha [15]: 0 to 29%; pest or weed control at 140 g/ha [14]: 0 to 29%
5 | COC(=O)c1nc(-c2ccc(C(F)(F)F)cc2Cl)cc(Br)c1Cl [F41, methyl 4-bromo-3-chloro-6-(2-chloro-4-(trifluoromethyl)phenyl)picolinate] | 0 to 29 | 0 to 29 | 0 to 29 | 0 to 29 | 0 to 29 | 0 to 29 | 0 to 29 | 0 to 29 |  |  |  |  |  | 0 to 29 | 0 to 29 | 0 to 29 | 0 to 29 | 0 to 29 | 0 to 29 | 0 to 29 | 
6 | O=C(O)c1nc(-c2ccc(C(F)(F)F)cc2Cl)ccc1F [F132, 6-(2-Chloro-4-(trifluoromethyl)phenyl)-3-fluoropicolinic acid] | 60 to 74 | 95 to 100 | 75 to 84 | 0 to 29 | 75 to 84 | 85 to 94 | 0 to 29 | 0 to 29 |  |  |  |  |  | 0 to 29 | 95 to 100 | 0 to 29 | 95 to 100 | 85 to 94 | 0 to 29 | 75 to 84 | 
7 | CCOc1c(Cl)ccc(-c2ccc(Cl)c(C(=O)OC)n2)c1Cl [F276, Methyl 3-chloro-6-(2,4-dichloro-3-ethoxyphenyl) picolinate] | 0 to 29 | 0 to 29 | 0 to 29 | 0 to 29 | 0 to 29 | 0 to 29 | 0 to 29 | 0 to 29 | 0 to 29 | 0 to 29 | 0 to 29 | 0 to 29 | 0 to 29 |  |  |  |  |  |  |  | pest or weed control at 140 g/ha [15]: 0 to 29%; pest or weed control at 140 g/ha [14]: 0 to 29%
8 | C#Cc1ccc(-c2ccc(C(F)(F)F)cc2Cl)nc1C(=O)OC [F31, Methyl 6-(2-chloro-4-(trifluoromethyl)phenyl)-3-ethynylpicolinate] | 0 to 29 | 60 to 74 | 0 to 29 | 0 to 29 | 0 to 29 | 45 to 59 | 0 to 29 | 0 to 29 |  |  |  |  |  | 0 to 29 | 45 to 59 | 0 to 29 | 0 to 29 | 0 to 29 | 0 to 29 | 0 to 29 | 
9 | COC(=O)c1nc(-c2ccc(S(C)(=O)=O)cc2)c(F)cc1Cl [F169, Methyl 3-chloro-5-fluoro-6-(4-(methylsulfonyl)phenyl)picolinate] | 45 to 59 | 60 to 74 | 30 to 44 | 0 to 29 | 60 to 74 | 60 to 74 | 0 to 29 | 0 to 29 |  |  |  |  |  | 0 to 29 | 30 to 44 | 0 to 29 | 30 to 44 | 0 to 29 | 0 to 29 | 30 to 44 | 
10 | COC(=O)c1nc(-c2ccc(C(F)(F)F)cc2Cl)ncc1Cl [F105, Methyl 5-chloro-2-(2-chloro-4-(trifluoromethyl)phenyl)pyrimidine-4-carboxylate] | 60 to 74 | 95 to 100 | 60 to 74 | 0 to 29 | 60 to 74 | 75 to 84 | 0 to 29 | 0 to 29 |  |  |  |  |  | 0 to 29 | 95 to 100 | 0 to 29 | 85 to 94 | 85 to 94 | 0 to 29 | 85 to 94 | 
